Activity calls are given as the source filed them. The calls are words filed in the database; no cut-off is given here.
What was measured:
[1] = Acute toxicity when administered intraperitoneally in mice; type: organism-based; conditions: mouse, in vivo, ip; read-out: ALD50
[2] = tested on: Mus musculus; assay: Effective dose for anorexigenic activity when administered to mice intraperitoneally; type: functional; conditions: ip
[3] = Effect on change in blood pressure in mice; type: functional
[4] = Effect on change in blood pressure in […]; no effect; type: functional, organism-based
[5] = tested on: Mus musculus; assay: Protection against amphetamine toxicity in mice when administered percutaneously; type: functional
[6] = tested on: Mus musculus; assay: Effective dose for anorexigenic activity when administered to mice intraperitoneally; no effect; type: functional, organism-based
[7] = tested on: Mus musculus; assay: Protection against amphetamine toxicity in mice when administered percutaneously; no effect; type: functional, organism-based

Q: Which LD50 [1] does the source give for `N[C@@H]1CCOc2ccccc2[C@@H]1O` here?
A: 800 mg/kg

Q: What about the ED50 [2] of the same molecule?
A: 75 mg/kg

Q: What about the “Change in blood pressure” value [3] of the same molecule?
A: 44 mmHg

Q: For `N[C@@H]1CCCc2ccccc2[C@@H]1O`, which “Change in blood pressure” value [4] is on record?
A: inactive

Q: What about the LD50 [1] of the same molecule?
A: 150 mg/kg

Q: And the ED50 [5]?
A: 73 mg/kg

Q: Which results are given for `COc1ccc2c(c1)[C@H](O)[C@H](N)CCO2`?
A: LD50 [1]: 150 mg/kg; ED50 [6]: inactive; Change in blood pressure [3]: 20 mmHg

Q: Which “Change in blood pressure” value [4] does the source give for `N[C@H]1CCCc2ccccc2[C@@H]1O` here?
A: inactive

Q: And the LD50 [1]?
A: 150 mg/kg

Q: And the ED50 [7]?
A: inactive

Q: Which results are given for `Cc1cc2c(cc1C)[C@H](O)[C@H](N)CCC2`?
A: Change in blood pressure [4]: inactive; LD50 [1]: 150 mg/kg; ED50 [7]: inactive

Q: With `Cc1ccc2c(c1)[C@H](O)[C@@H](N)CCO2` as the molecule, how does the LD50 [1] read?
A: 150 mg/kg

Q: And the ED50 [6]?
A: inactive

Q: And the “Change in blood pressure” value [3]?
A: 38 mmHg

Q: Which results are given for `COc1cc2c(cc1OC)[C@H](O)[C@H](N)CCC2`?
A: Change in blood pressure [4]: inactive; LD50 [1]: 150 mg/kg; ED50 [7]: inactive

Q: What does the source list for `Cc1ccc2c(c1)[C@H](O)[C@H](N)CCO2`?
A: LD50 [1]: 300 mg/kg; ED50 [6]: inactive; Change in blood pressure [3]: 10 mmHg

Q: Which LD50 [1] does the source give for `N[C@@H]1CCCc2cc(O)c(O)cc2[C@@H]1O` here?
A: 150 mg/kg

Q: What about the ED50 [7] of the same molecule?
A: inactive

Q: What does the source list for `COc1ccc2c(c1)[C@H](O)[C@@H](N)CCO2`?
A: LD50 [1]: 150 mg/kg; ED50 [6]: inactive; Change in blood pressure [3]: 40 mmHg

Q: Which results are given for `N[C@H]1CCOc2ccccc2[C@@H]1O`?
A: LD50 [1]: 500 mg/kg; ED50 [2]: 55 mg/kg; Change in blood pressure [3]: 32 mmHg

From ChEMBL document CHEMBL1146759, “Chemo- and stereoselective synthesis of benzocycloheptene and 1-benzoxepin derivatives as alpha-sympathomimetic and anorexigenic agents” (Bioorg Med Chem Lett, 2004)
